Experimental data taken from the Kinase Knowledgebase extract (Sharma et al. 2016).

These compounds were tested against EGFR (UniProt P00533) (assay: Inhibition of EGFR Kinase Activity).
EGFR, sequence (P00533 whole entry, looked up): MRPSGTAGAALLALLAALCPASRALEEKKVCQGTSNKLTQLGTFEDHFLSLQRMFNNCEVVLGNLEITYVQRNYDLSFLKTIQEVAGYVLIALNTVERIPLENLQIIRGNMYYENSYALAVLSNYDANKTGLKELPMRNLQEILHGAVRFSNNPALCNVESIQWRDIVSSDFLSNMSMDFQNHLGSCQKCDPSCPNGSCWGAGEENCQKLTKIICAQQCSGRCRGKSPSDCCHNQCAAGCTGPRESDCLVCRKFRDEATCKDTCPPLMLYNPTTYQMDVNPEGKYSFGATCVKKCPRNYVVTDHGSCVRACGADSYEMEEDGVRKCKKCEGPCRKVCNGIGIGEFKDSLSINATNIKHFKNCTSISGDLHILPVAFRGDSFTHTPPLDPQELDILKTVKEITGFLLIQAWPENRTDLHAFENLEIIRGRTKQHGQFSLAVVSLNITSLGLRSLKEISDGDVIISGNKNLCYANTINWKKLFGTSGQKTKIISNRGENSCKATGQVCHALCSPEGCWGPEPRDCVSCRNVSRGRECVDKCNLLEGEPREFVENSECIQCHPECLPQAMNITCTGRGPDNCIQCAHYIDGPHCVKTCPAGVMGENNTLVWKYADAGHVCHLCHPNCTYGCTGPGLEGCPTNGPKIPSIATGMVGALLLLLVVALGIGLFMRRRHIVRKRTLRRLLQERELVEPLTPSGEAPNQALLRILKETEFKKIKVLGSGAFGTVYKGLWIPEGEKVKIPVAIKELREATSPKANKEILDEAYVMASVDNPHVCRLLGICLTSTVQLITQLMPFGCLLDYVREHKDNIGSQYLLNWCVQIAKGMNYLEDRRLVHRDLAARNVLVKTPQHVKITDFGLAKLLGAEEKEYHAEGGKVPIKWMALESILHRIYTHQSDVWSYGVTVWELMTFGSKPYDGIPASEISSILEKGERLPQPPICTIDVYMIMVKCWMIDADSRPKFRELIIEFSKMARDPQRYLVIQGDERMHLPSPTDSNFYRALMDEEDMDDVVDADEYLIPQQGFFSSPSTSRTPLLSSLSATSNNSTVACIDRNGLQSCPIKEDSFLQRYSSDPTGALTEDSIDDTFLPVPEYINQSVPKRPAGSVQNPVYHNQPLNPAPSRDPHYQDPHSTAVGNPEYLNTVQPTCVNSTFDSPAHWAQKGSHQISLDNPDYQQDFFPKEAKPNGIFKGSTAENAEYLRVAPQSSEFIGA

Structure (SMILES) | IC50
C=CC(=O)Nc1ccc(Nc2ncnc(N(CC)n3c(=O)[nH]c4ccccc43)n2)cc1 | < 50 µM
CC#CC(=O)Nc1cccc(Nc2ncnc(N(C)c3ccc(OC)c(OCCOC)c3)n2)c1 | < 50 µM
C=CC(=O)Nc1cccc(Nc2ncnc(N(C)c3cccc4ccccc34)n2)c1 | < 50 µM
C=CC(=O)N(CCCN1CCOCC1)c1cccc(Nc2ncnc(Nc3ccc(C(=O)OC)cc3)n2)c1 | < 50 µM
C=CC(=O)Nc1ccc(Nc2ncnc(Nc3ccc(OCCOC)c(OC)c3)n2)cc1 | < 50 µM
C=CCN(c1ccc(OCCC)c(OCCC)c1)c1ncnc(Nc2cccc(NC(=O)C#CC)c2)n1 | < 50 µM
C=CC(=O)Nc1ccc(Nc2ncnc(NC3CC3c3ccc(Cl)cc3)n2)cc1 (stereo not drawn) | < 50 µM
C=CC(=O)Nc1cccc(Nc2ncnc(Nc3ccc4c(cnn4Cc4ccccc4)c3)n2)c1 | < 50 µM
C=CCN(c1ncnc(Nc2ccc(NC(=O)C=C)cc2)n1)c1cc(Cl)cc2ccccc12 | < 50 µM
C=CC(=O)N(CCCN1CCOCC1)c2cccc(Nc3ncnc(Nc4ccc5NN(=Cc5c4)Cc6ccccn6)n3)c2 | < 50 µM
C=CC(=O)Nc1ccc(Nc2ncnc(NN3CCCc4c(Cl)cccc43)n2)cc1 | < 50 µM
C=CCN(c1ccc(C(=O)OC)cc1)c1ncnc(Nc2cccc(NC(=O)C=C)c2)n1 | < 50 µM
C=CCN(c1ccc(OC)c(OC)c1)c1ncnc(Nc2cccc(NC(=O)C=C)c2)n1 | < 50 µM
C=CC(=O)Nc1cc(Nc2ncnc(N(C)c3cccc(Cl)c3)n2)ccc1OCCCN1CCOCC1 | < 50 µM
CC#CC(=O)Nc1cc(Nc2ncnc(N(C)c3ccc4c(cnn4Cc4ccccc4)c3)n2)ccc1OCCCC1CCN(C)CC1 | < 50 µM
C=CCN(c1ccc(OC)c(OCCOC)c1)c1ncnc(Nc2cccc(NC(=O)C=C)c2)n1 | < 50 µM
C#CCC(=O)Nc1cccc(Nc2ncnc(NN3CCCc4c(Cl)cccc43)n2)c1 | < 50 µM
C=CC(=O)Nc1cccc(Nc2ncnc(Nc3ccc(S(=O)(=O)c4ccccc4)cc3)n2)c1 | < 50 µM
C=CC(=O)Nc1cccc(Nc2ncnc(N(C)C3CC3c3ccccc3)n2)c1 (stereo not drawn) | < 50 µM
C=CC(=O)Nc1ccc(Nc2ncnc(Nc3cccc(C)c3)n2)cc1 | < 50 µM
C=CC(=O)Nc1cccc(Nc2ncnc(N(CC)c3ccc(OCC)c(OCC)c3)n2)c1 | < 50 µM

Second part, the compound after the results:

IC50 | Structure (SMILES)
< 50 µM | C=CC(=O)Nc1ccc(Nc2ncnc(Nc3ccc(OCCO)cc3)n2)cc1
< 50 µM | C=CC(=O)Nc1ccc(Nc2ncnc(Nc3ccc(F)c(Cl)c3)n2)cc1
< 50 µM | C=CCN(c1ccc2c(cnn2Cc2ccccc2)c1)c1ncnc(Nc2ccc(NC(=O)C=C)cc2)n1
< 50 µM | C=CC(=O)N(CCCN1CCOCC1)c1cccc(Nc2ncnc(Nc3cccc(Cl)c3)n2)c1
< 50 µM | C=CC(=O)Nc1cccc(Nc2ncnc(NN3CCCc4ccc(C(F)(F)F)cc43)n2)c1
< 50 µM | C=CCN(c1ncnc(Nc2cccc(NC(=O)C#CC)c2)n1)n1c(=O)[nH]c2ccccc21
< 50 µM | C=CCN(c1ccc2NN(=Cc2c1)Cc3ccccn3)c4ncnc(Nc5cccc(NC(=O)C=C)c5)n4
< 50 µM | C=CC(=O)Nc1cccc(Nc2ncnc(N(CC)c3ccc(F)c(Cl)c3)n2)c1
< 50 µM | C=CC(=O)Nc1cccc(Nc2ncnc(Nc3ccc4c(cnn4Cc4ccccn4)c3)n2)c1
< 50 µM | C=CC(=O)Nc1cccc(Nc2ncnc(N(C)c3ccc4c(cnn4Cc4ccccn4)c3)n2)c1
< 50 µM | C#CCC(=O)Nc1cccc(Nc2ncnc(NN3CCCc4ccc(Cl)cc43)n2)c1
< 50 µM | C=CC(=O)Nc1ccc(Nc2ncnc(N(C)c3cccc(C)c3)n2)cc1
< 50 µM | C=CC(=O)Nc1ccc(Nc2ncnc(N(C)c3ccc4c(ccn4Cc4ccccc4)c3)n2)cc1
< 50 µM | C=CC(=O)Nc1cc(Nc2ncnc(NN3CCCc4ccc(Cl)cc43)n2)ccc1OCCCC1CCN(C)CC1
< 50 µM | CC#CC(=O)Nc1cc(Nc2ncnc(N(C)c3cccc(Cl)c3)n2)ccc1OCCCC1CCN(C)CC1
< 50 µM | CC#CC(=O)Nc1cccc(Nc2ncnc(N(CC)c3ccc4c(cnn4Cc4ccccc4)c3)n2)c1
< 50 µM | CC#CC(=O)Nc1cc(Nc2ncnc(N(C)c3ccc4c(ccn4Cc4ccccc4)c3)n2)ccc1OCCCC1CCN(C)CC1
